Data as given in patent US10577363B2, “Substituted piperidine compounds” (EPIZYME, INC., priority 2014, dated 2020).

Key:
SMYD3 [1] = molecular target: T1, SMYD3 (Homo sapiens (Human), UniProt Q9H7B4); test: SMYD3 biochemical assay (SPA, 3H-SAM methylation of MEKK2 protein substrate); conditions: Table 2A; read-out: SMYD3 Biochem IC50
Procedure, shortened: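 Methylation of N-terminally GST-tagged MEKK2 by untagged full-length human SMYD3, using 3H-SAM, in pH 8.0 Tris buffer with TCEP, BSG and Tween 20; enzyme and compound sat 30 min at room temperature before substrate addition. Stopped with 100 uM (final) cold SAM; incorporation read by scintillation proximity as dpm/cpm.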

SMYD3 [2] = molecular target: T1, SMYD3; test: SMYD3 cell assay (Trimethyl-MEKK2 In-Cell Western in 293T/17 cells); assay type: cell-based; conditions: Table 2A; read-out: SMYD3 Cell IC50
Procedure, shortened: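 In-Cell Western readout: methanol-fixed cells stained for trimethyl-MEKK2 and flag tag, ratio per well normalized to DMSO and background controls.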

T1 sequence (Q9H7B4 whole entry): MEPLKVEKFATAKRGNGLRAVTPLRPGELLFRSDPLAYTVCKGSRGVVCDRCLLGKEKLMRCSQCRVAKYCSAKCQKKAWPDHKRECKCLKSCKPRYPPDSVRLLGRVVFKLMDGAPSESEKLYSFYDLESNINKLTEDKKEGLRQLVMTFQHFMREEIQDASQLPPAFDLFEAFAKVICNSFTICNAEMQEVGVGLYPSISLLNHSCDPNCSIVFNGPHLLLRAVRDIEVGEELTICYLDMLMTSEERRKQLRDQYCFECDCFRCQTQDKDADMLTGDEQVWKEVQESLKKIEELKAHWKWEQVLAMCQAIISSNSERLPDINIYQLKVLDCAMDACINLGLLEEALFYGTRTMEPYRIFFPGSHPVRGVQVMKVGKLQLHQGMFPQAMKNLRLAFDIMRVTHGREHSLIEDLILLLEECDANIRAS

| SMILES | IC50 (SMYD3 [1]) [nM] | IC50 (SMYD3 [2]) [nM] |
| --- | --- | --- |
| O=C(N[C@H]1C[C@H]2CC[C@@H](C1)N2S(=O)(=O)CCCN1CCCC1)c1cc(C2CC2)on1 [compound 597, 5-cyclopropyl-N-((1R,3r,5S)-8-((3-(pyrrolidin-1-yl)propyl)sulfonyl)-8-azabicyclo[3.2.1]octan-3-yl)isoxazole-3-carboxamide] | 12.9 | 217 |
| CN(CCN)CCS(=O)(=O)N1[C@@H]2CC[C@H]1C[C@@H](NC(=O)c1cc(C3CC3)on1)C2 [compound 598, N-((1R,3r,5S)-8-((2-((2-aminoethyl)(methyl)amino)ethyl)sulfonyl)-8-azabicyclo[3.2.1]octan-3-yl)-5-cyclopropylisoxazole-3-carboxamide] | 13.1 | 431 |
| CN(C)CCNCCS(=O)(=O)N1[C@@H]2CC[C@H]1C[C@@H](NC(=O)c1cc(C3CC3)on1)C2 [compound 599, 5-cyclopropyl-N-((1R,3r,5S)-8-((2-((2-(dimethylamino)ethyl)amino)ethyl)sulfonyl)-8-azabicyclo[3.2.1]octan-3-yl)isoxazole-3-carboxamide] | 13.5 | 213 |
| CC1(C)CN(S(=O)(=O)N2[C@@H]3CC[C@H]2C[C@@H](NC(=O)c2cc(C4CC4)on2)C3)CCN1 [compound 600, 5-cyclopropyl-N-((1R,3r,5S)-8-((3,3-dimethylpiperazin-1-yl)sulfonyl)-8-azabicyclo[3.2.1]octan-3-yl)isoxazole-3-carboxamide] | 13.5 | 118 |
| C[C@H]1CN(S(=O)(=O)CCCN)[C@@H](C)C[C@H]1NC(=O)c1cc(C2CC2)on1 [compound 601, N-((2S,4R,5S)-1-((3-aminopropyl)sulfonyl)-2,5-dimethylpiperidin-4-yl)-5-cyclopropylisoxazole-3-carboxamide] | 14.3 | 333 |
| O=C(N[C@H]1C[C@H]2CC[C@@H](C1)N2S(=O)(=O)N1C2CCC1CNC2)c1cc(C2CC2)on1 [compound 602, N-((1R,3r,5S)-8-((3,8-diazabicyclo[3.2.1]octan-8-yl)sulfonyl)-8-azabicyclo[3.2.1]octan-3-yl)-5-cyclopropylisoxazole-3-carboxamide] | 14.5 | 132 |
| CN(C)CCN(C)CCS(=O)(=O)N1[C@@H]2CC[C@H]1C[C@@H](NC(=O)c1cc(C3CC3)on1)C2 [compound 603, 5-cyclopropyl-N-((1R,3r,5S)-8-((2-((2-(dimethylamino)ethyl)(methyl)amino)ethyl)sulfonyl)-8-azabicyclo[3.2.1]octan-3-yl)isoxazole-3-carboxamide] | 14.7 | 239 |
| COCCNCCCS(=O)(=O)N1[C@@H]2CC[C@H]1C[C@@H](NC(=O)c1cc(C3CC3)on1)C2 [compound 604, 5-cyclopropyl-N-((1R,3r,5S)-8-((3-((2-methoxyethyl)amino)propyl)sulfonyl)-8-azabicyclo[3.2.1]octan-3-yl)isoxazole-3-carboxamide] | 16.2 | 200 |
| CNCCNCCS(=O)(=O)N1[C@@H]2CC[C@H]1C[C@@H](NC(=O)c1cc(C3CC3)on1)C2 [compound 605, 5-cyclopropyl-N-((1R,3r,5S)-8-((2-((2-(methylamino)ethyl)amino)ethyl)sulfonyl)-8-azabicyclo[3.2.1]octan-3-yl)isoxazole-3-carboxamide] | 17.5 | 302 |
| CN1CCC(N(C)S(=O)(=O)N2[C@@H]3CC[C@H]2C[C@@H](NC(=O)c2cc(C4CC4)on2)C3)CC1 [compound 606, 5-cyclopropyl-N-((1R,3r,5S)-8-(N-methyl-N-(1-methylpiperidin-4-yl)sulfamoyl)-8-azabicyclo[3.2.1]octan-3-yl)isoxazole-3-carboxamide] | 17.7 | 235 |
| CC(C)N1CCC(CS(=O)(=O)N2CC[C@@H](NC(=O)c3cc(C4CC4)on3)C[C@H]2C)CC1 [compound 607, 5-cyclopropyl-N-((2R,4R)-1-(((1-isopropylpiperidin-4-yl)methyl)sulfonyl)-2-methylpiperidin-4-yl)isoxazole-3-carboxamide] | 17.8 | 1170 |
| C[C@H]1CN(S(=O)(=O)CC2CCN(CCCO)CC2)CC[C@H]1NC(=O)c1cc(C2CC2)on1 [compound 608, 5-cyclopropyl-N-((3S,4R)-1-(((1-(3-hydroxypropyl)piperidin-4-yl)methyl)sulfonyl)-3-methylpiperidin-4-yl)isoxazole-3-carboxamide] | 17.8 | 225 |
| C[C@H]1C[C@@H](NC(=O)c2cc(C3CC3)on2)CCN1S(=O)(=O)CCCNCc1cccc(C(F)(F)F)c1 [compound 609, 5-cyclopropyl-N-((2S,4S)-2-methyl-1-((3-((3-(trifluoromethyl)benzyl)amino)propyl)sulfonyl)piperidin-4-yl)isoxazole-3-carboxamide] | 18.8 | 451 |
| CN(C)CCN(C)CCCS(=O)(=O)N1[C@@H]2CC[C@H]1C[C@@H](NC(=O)c1cc(C3CC3)on1)C2 [compound 610, 5-cyclopropyl-N-((1R,3r,5S)-8-((3-((2-(dimethylamino)ethyl)(methyl)amino)propyl)sulfonyl)-8-azabicyclo[3.2.1]octan-3-yl)isoxazole-3-carboxamide] | 19.4 | 332 |
| CC(C)CN1CCC(CS(=O)(=O)N2CC[C@@H](NC(=O)c3cc(C4CC4)on3)C[C@H]2C)CC1 [compound 611, 5-cyclopropyl-N-((2R,4R)-1-(((1-isobutylpiperidin-4-yl)methyl)sulfonyl)-2-methylpiperidin-4-yl)isoxazole-3-carboxamide] | 20 | 1030 |
| C[C@H]1C[C@@H](NC(=O)c2cc(C3CC3)on2)CCN1S(=O)(=O)CCCNCC1CCCCC1 [compound 612, N-((2S,4S)-1-((3-((cyclohexylmethyl)amino)propyl)sulfonyl)-2-methylpiperidin-4-yl)-5-cyclopropylisoxazole-3-carboxamide] | 20.7 | 217 |
| C[C@H]1CN(S(=O)(=O)CC2CCN(CCCC(F)(F)F)CC2)CC[C@H]1NC(=O)c1cc(C2CC2)on1 [compound 613, 5-cyclopropyl-N-((3S,4R)-3-methyl-1-(((1-(4,4,4-trifluorobutyl)piperidin-4-yl)methyl)sulfonyl)piperidin-4-yl)isoxazole-3-carboxamide] | 20.9 | 212 |
| C[C@H]1CN(S(=O)(=O)N2CCC(NCc3ccccc3)CC2)CC[C@H]1NC(=O)c1cc(C2CC2)on1 [compound 614, N-((3S,4R)-1-((4-(benzylamino)piperidin-1-yl)sulfonyl)-3-methylpiperidin-4-yl)-5-cyclopropylisoxazole-3-carboxamide] | 21.2 | 304 |
| C[C@H]1C[C@@H](NC(=O)c2cc(C3CC3)on2)CCN1S(=O)(=O)N1C2CCC1CNC2 [compound 615, N-((2S,4S)-1-((3,8-diazabicyclo[3.2.1]octan-8-yl)sulfonyl)-2-methylpiperidin-4-yl)-5-cyclopropylisoxazole-3-carboxamide] | 21.7 | 233 |
| C[C@@H]1C[C@H](NC(=O)c2cc(C3CC3)on2)CCN1C(=O)c1ccc(C2CCCNC2)cc1 (stereo partly drawn) [compound 616, 5-cyclopropyl-N-((2R,4R)-2-methyl-1-(4-(piperidin-3-yl)benzoyl)piperidin-4-yl)isoxazole-3-carboxamide] | 21.9 | 595 |
| CCN1CCN(S(=O)(=O)N2CC[C@H](NC(=O)c3cc(C4CC4)on3)C[C@@H]2C)CC1 [compound 617, 5-cyclopropyl-N-((2S,4S)-1-((4-ethylpiperazin-1-yl)sulfonyl)-2-methylpiperidin-4-yl)isoxazole-3-carboxamide] | 22.8 | 183 |
| C[C@H]1CN(S(=O)(=O)CC2CCNCC2)CC[C@H]1NC(=O)c1cc(C2CC2)on1 [compound 618, 5-cyclopropyl-N-((3S,4R)-3-methyl-1-((piperidin-4-ylmethyl)sulfonyl)piperidin-4-yl)isoxazole-3-carboxamide] | 23.2 | 220 |
| O=C(N[C@H]1C[C@H]2CC[C@@H](C1)N2S(=O)(=O)CC1CCN(CCN2CCOCC2)CC1)c1cc(C2CC2)on1 [compound 619, 5-cyclopropyl-N-((1R,3r,5S)-8-(((1-(2-morpholinoethyl)piperidin-4-yl)methyl)sulfonyl)-8-azabicyclo[3.2.1]octan-3-yl)isoxazole-3-carboxamide] | 23.2 | 592 |
| CNCCN(C)CCS(=O)(=O)N1[C@@H]2CC[C@H]1C[C@@H](NC(=O)c1cc(C3CC3)on1)C2 [compound 620, 5-cyclopropyl-N-((1R,3r,5S)-8-((2-(methyl(2-(methylamino)ethyl)amino)ethyl)sulfonyl)-8-azabicyclo[3.2.1]octan-3-yl)isoxazole-3-carboxamide] | 23.3 | 339 |
| C[C@H]1CN(S(=O)(=O)N2CCNCC2)CC[C@H]1NC(=O)c1cc(C2CC2)on1 [compound 621, 5-cyclopropyl-N-((3S,4R)-3-methyl-1-(piperazin-1-ylsulfonyl)piperidin-4-yl)isoxazole-3-carboxamide] | 23.4 | 223 |
| CNCCN(C)CCCS(=O)(=O)N1[C@@H]2CC[C@H]1C[C@@H](NC(=O)c1cc(C3CC3)on1)C2 [compound 622, 5-cyclopropyl-N-((1R,3r,5S)-8-((3-(methyl(2-(methylamino)ethyl)amino)propyl)sulfonyl)-8-azabicyclo[3.2.1]octan-3-yl)isoxazole-3-carboxamide] | 23.4 | 464 |
| C[C@H]1CN(S(=O)(=O)CC2CCN(CCO)CC2)CC[C@H]1NC(=O)c1cc(C2CC2)on1 [compound 623, 5-cyclopropyl-N-((3S,4R)-1-(((1-(2-hydroxyethyl)piperidin-4-yl)methyl)sulfonyl)-3-methylpiperidin-4-yl)isoxazole-3-carboxamide] | 23.7 | 231 |
